Experimental data reported in patent US9540356B2 (priority 2012, dated 2017).

Columns and labels:
[1] = system: HeLa cells; format: cell-based, human
[2] = system: retrograde transport of Shiga toxin subunit B (StxB); format: cell-based
[3] = system: HeLa cells; test: cells; format: cell-based; conditions: Homo sapiens

SMILES | R (Stx), protective index [1] | retrograde transport, % control [2] [%] | IC50 [3] [nM]
O=C1c2ccccc2NC(c2ccc(-c3ccccn3)s2)N1c1ccccc1 (stereo not drawn) [Compound 19, 3-Phenyl-2-(5-(pyridin-2-yl)thiophen-2-yl)-2,3-dihydroquinazolin-4(1H)-one] | 46 | 10.7 | 
O=C1c2ccccc2NC(c2ccc(-c3ccco3)s2)N1c1ccccc1 (stereo not drawn) [Compound 20, 2-(5-(Furan-2-yl)thiophen-2-yl)-3-phenyl-2,3-dihydroquinazolin-4(1H)-one] | 41 | 6.5 | 
Cc1nc(-c2ccc(C3Nc4ccccc4C(=O)N3c3ccccc3)s2)cs1 (stereo not drawn) [Compound 21, 2-(5-(2-Methylthiazol-4-yl)thiophen-2-yl)-3-phenyl-2,3-dihydroquinazolin-4(1H)-one] | 109 | 0.0 | 
CN1c2ccccc2C(=O)N(c2ccccc2)C1c1ccc(-c2ccccc2)s1 (stereo not drawn) [Compound 36, 1-Methyl-3-phenyl-2-(5-phenylthiophen-2-yl)-2,3-dihydroquinazolin-4(1H)-one] | 29 | 7.1 | 
CN1c2ccccc2C(=O)N(c2ccccc2)C1c1ccc(-c2ccccn2)s1 (stereo not drawn) [Compound 37, 1-Methyl-3-phenyl-2-(5-(pyridin-2-yl)thiophen-2-yl)-2,3-dihydroquinazolin-4(1H)-one] | 111 | 10.3 | 
CSc1ccc(C2N(C)c3ccccc3C(=O)N2c2ccccc2)s1 (stereo not drawn) [Compound 38, 1-Methyl-2-(5-(methylthio)thiophen-2-yl)-3-phenyl-2,3-dihydroquinazolin-4(1H)-one] | 60 | 18.2 | 
CN1c2ccccc2C(=O)N(c2ccccc2)C1c1ccc(-c2cccs2)s1 (stereo not drawn) [Compound 39, 2-([2,2′-Bithiophen]-5-yl)-1-methyl-3-phenyl-2,3-dihydroquinazolin-4(1H)-one] | 36 | 6.2 | 
CN1c2ccccc2C(=O)N(c2ccccc2)C1c1ccc(-c2ccco2)s1 (stereo not drawn) [Compound 40, 2-(5-(Furan-2-yl)thiophen-2-yl)-1-methyl-3-phenyl-2,3-dihydroquinazolin-4(1H)-one] | 27 | 5.3 | 1500
CCc1ccc(C2N(C)c3ccccc3C(=O)N2c2ccccc2)s1 (stereo not drawn) [Compound 41, 2-(5-Ethylthiophen-2-yl)-1-methyl-3-phenyl-2,3-dihydroquinazolin-4(1H)-one] | 173 | 0.0 | 
Cc1nc(-c2ccc(C3N(C)c4ccccc4C(=O)N3c3ccccc3)s2)cs1 (stereo not drawn) [Compound 42, 1-Methyl-2-(5-(2-methylthiazol-4-yl)thiophen-2-yl)-3-phenyl-2,3-dihydroquinazolin-4(1H)-one] | 85 | 0.0 | 
